# Several values for one entry are separate records, joined by “and”; a condition that tells them apart may be missing. Equal values may be shown once. Entries after “also recorded” stand apart in the source; their conditions may differ.
# Legend:
# T47D cells = assay: E1 induced proliferation of T47D cells, 7 days, cell count; format: cell-based, human; conditions: FIG. 1
# Text: Two days prior to testing of compounds, growth medium was changed to medium without phenol red, supplemented with 2 mmol^·l^−1 Glutamax and 4% FBS depleted of lipophilic components (including the endogenous estrogenic substances) (Hyclone, GE Healthcare Life Sciences, USA). Two days after the medium replacement, the cells were harvested, counted and resuspended in a medium. Cells were dispensed with liquid dispenser Multidrop (Thermo Fisher Scientific, Waltham, USA), to the cell culture treated, 12-well plates (Corning Inc., NY, USA) at 100 000 cells/well in 1 mL of total media volume. Compounds diluted in the medium were added 24 h later and cells were incubated for 7 more days with or without 1 μmol^·l^−1 E1. Growth medium was changed during the experiment on day 3, and freshly diluted compounds were added to cells again. After 7 days of cell cultivation with compounds, cells were harvested and counted. Cell number was normalized and 100% was attributed to cells cultivated in the presence of 1 μmol^·l^−1 E1 and 0% to the cells cultivated without any added compound.
# CEM = assay: MTT cytotoxicity assay, CEM; format: cell-based; conditions: Homo sapiens, CCRF-CEM
# Text: (§1) Compounds 5, 6, 7, 9, 14 and 15 were used for evaluation of antitumor activity. MTT cytotoxicity assay was used in vitro on cell lines derived from normal tissues and from tumors. Specifically, these were the K562 line (human myeloid leukemia), K562-Tax (human myeloid leukemia resistant to taxol and overexpressing PgP protein for multidrug resistance), CEM (T-lymphoblastic leukemia), CEM-DNR bulk (T-lymphoblastic leukemia resistant doxorubicin, lacking the expression of the target gene for inhibitors of topoisomerase II alpha), A549 line (human lung adenocarcinoma), HCT116p53 wt (human colon cancer), HCT116p53−/− (human colon cancer, mutant p53), U2OS line of human osteosarcoma and two fibroblast lines MRC5 and BJ as examples of non-tumor cells. Expression characteristics, profiles of susceptibility to classical antitumor drugs and methodology of the MTT cytotoxicity assay were repeatedly published (e.g. Noskova et al. Neoplasma 2002, 49, 418; S̆arek et. al. J. Med. Chem. 2003, 46, 25, 5402).
# CEM-DNR-bulk = assay: MTT cytotoxicity assay, CEM-DNR-bulk; format: cell-based
# Text: as §1
# K562 = assay: MTT cytotoxicity assay, K562; format: cell-based; conditions: Homo sapiens
# Text: as §1
# K562-Tax = assay: MTT cytotoxicity assay, K562-Tax; format: cell-based; conditions: Homo sapiens
# Text: as §1
# A549 = assay: MTT cytotoxicity assay, A549; format: cell-based; conditions: Homo sapiens
# Text: as §1
# HCT116p53 wt = assay: MTT cytotoxicity assay, HCT116p53 wt; format: cell-based; conditions: Homo sapiens
# Text: as §1
# HCT116p53-/- = assay: MTT cytotoxicity assay, HCT116p53-/-; format: cell-based; conditions: Homo sapiens
# Text: as §1
# U2OS = assay: MTT cytotoxicity assay, U2OS; format: cell-based; conditions: Homo sapiens
# Text: as §1
# BJ = assay: MTT cytotoxicity assay, BJ fibroblasts; format: cell-based; conditions: Homo sapiens, non-tumor fibroblasts
# Text: as §1
# MRCS = assay: MTT cytotoxicity assay, MRC5 fibroblasts; format: cell-based; conditions: Homo sapiens, Fibroblast, non-tumor fibroblasts
# Text: as §1
# 17βHSD = assay: Inhibition of 17βHSD in vivo, E2 in plasma of mice; design: species or system mice (NMRI); conditions: 20 mg/kg daily, orally; for E2 in plasma, individual mice: 20 mg/kg
# embryo = assay: Toxicity in the CAM model, dead and surviving embryos; format: in vivo, White Leghorn eggs; conditions: 50 μmol·l^−1, after 6 days of treatment, FIG. 2C
# Procedure: The toxicity after 6 days of the treatment was characterized by the number of dead embryos, eventual visible macroscopic abnormalities were evaluated as well.
# human 17βHSD1 [1] = biological target: T1, human 17βHSD1 (Homo sapiens, UniProt P14061); assay: 17βHSD inhibition in CHO cells transfected with human 17βHSD1, E1 in supernatant; format: cell-based; design: expressed in transfected cells; conditions: 10 μmol·l^−1
# T1 sequence (P14061 1-328): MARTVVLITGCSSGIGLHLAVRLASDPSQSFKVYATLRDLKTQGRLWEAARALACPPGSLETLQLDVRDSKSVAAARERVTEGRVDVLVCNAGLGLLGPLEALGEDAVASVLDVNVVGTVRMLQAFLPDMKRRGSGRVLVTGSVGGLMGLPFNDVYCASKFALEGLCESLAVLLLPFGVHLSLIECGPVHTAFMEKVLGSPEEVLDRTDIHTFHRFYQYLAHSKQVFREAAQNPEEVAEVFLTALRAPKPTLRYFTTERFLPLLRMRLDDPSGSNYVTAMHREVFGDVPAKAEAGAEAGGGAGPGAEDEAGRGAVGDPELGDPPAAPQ
# Procedure: (§2) For this experiment, non-cytotoxic concentrations of estrone derivative (10 μmol·l^−1) were used. E1 levels were determined by an immuno-enzymatic assay.
# human 17βHSD1 [2] = biological target: T1, human 17βHSD1; assay: 17βHSD inhibition in MCF-7 cells transfected with human 17βHSD1, E1 in supernatant; format: cell-based; design: expressed in transfected cells; host or cells: MCF-7; conditions: 10 μmol·l^−1
# Procedure: as §2
smiles,measurement,setting,value
"COc1ccc(CC[C@@H]2CC(=O)[C@@]3(C)CC[C@@H]4c5ccc(O)cc5CC[C@H]4[C@H]23)cc1 [Compound 9, 3-Hydroxy-15β-(4-methoxyphenethyl)-estra-1,3,5 (10)-trien-17-one]","effect on T47D proliferation, compound alone","T47D cells; 1 μmol·l^−1, without E1, 7 days",weakly pro-proliferative
same,effect on E1-induced proliferation of T47D cells,"T47D cells; incubated together with 0.1 nmol·l^−1 E1, 7 days",reverses the pro-proliferative activity of E1; also recorded: blocks E1-induced proliferation
same,IC50,CEM,21.4 µM
same,IC50,CEM-DNR-bulk,22.1 µM
same,IC50,K562,27.7 µM
same,IC50,K562-Tax,9.12 µM
same,IC50,A549,41 µM
same,IC50,HCT116p53 wt,29.4 µM
same,IC50,HCT116p53-/-,35.7 µM
same,IC50,U2OS,45.3 µM
same,IC50,BJ,> 50 µM
same,IC50,MRCS,> 50 µM
same,"E2 in plasma, mean value ± σ",17βHSD; 7 days,5693 ± 1034 pg/mL
same,"E2 in plasma, individual mice",17βHSD; 7 days,4927 pg/mL and 4357 pg/mL and 6020 pg/mL and 7379 pg/mL and 5857 pg/mL and 5617 pg/mL
same,"E2 in plasma, mean value ± σ",17βHSD; 14 days,3874 ± 1253 pg/mL
same,"E2 in plasma, individual mice",17βHSD; 14 days,6020 pg/mL and 2668 pg/mL and 2657 pg/mL and 3566 pg/mL and 4312 pg/mL and 4025 pg/mL
same,"toxicity, dead/alive eggs",embryo,No specific toxicity
same,"E1 in supernatant, CHO",human 17βHSD1 [1]; 8 hr.,1171 pg/mL
same,"E1 in supernatant, CHO",human 17βHSD1 [1]; 24 hr.,739 pg/mL
same,"E1 in supernatant, MCF-7",human 17βHSD1 [2]; 8 hr.,1300 pg/mL
same,"E1 in supernatant, MCF-7",human 17βHSD1 [2]; 24 hr.,1182 pg/mL
"CCOc1ccc(CC[C@@H]2CC(=O)[C@@]3(C)CC[C@@H]4c5ccc(O)cc5CC[C@H]4[C@H]23)cc1 [Compound 12, 15β-(4-Ethoxyphenethyl)-3-hydroxy-estra-1,3,5(10)-trien-17-one]",melting point,,173 °C

# Reference: US10759826B2, “15β-substituted estrone derivatives as selective inhibitors of 17β-hydroxysteroid-dehydrogenases, method of preparation and use thereof” (USTAV ORGANICKE CHEMIE A BIOCHEMIE AV CR, V.V.I., priority 2016, dated 2020)
